Marks after values point to notes of the source that are not given here.
System: patients with previously treated advanced NSCLC
Assay: Erlotinib-related toxicities (worst grade per patient), NCI CTC Version 2.0
Assay type: in vivo, human
[1] = erlotinib 175–200 mg (N=13), non-cutaneous dose limiting toxicity reported
[2] = erlotinib 225–275 mg (N=18), non-cutaneous dose limiting toxicity reported

C#Cc1cccc(Nc2ncnc3cc(OCCOC)c(OCCOC)cc23)c1 [erlotinib]
Alopecia, grade 3–4 (Total (N=42)): 0 (0) n (%) | Alopecia, grade Any (Total (N=42)): 6 (14) n (%) | Anorexia, grade 3–4 (Total (N=42)): 1 (2) n (%) | Anorexia, grade Any (Total (N=42)): 11 (26) n (%) | Creatinine, grade 3–4 (Total (N=42)): 1 (2) n (%) | Creatinine, grade Any (Total (N=42)): 1 (2) n (%) | Diarrhea, grade 3–4 (Total (N=42)): 1 (2) n (%) | Diarrhea, grade Any (Total (N=42)): 33 (79) n (%) | Epistaxis, grade 3–4 (Total (N=42)): 0 (0) n (%) | Epistaxis, grade Any (Total (N=42)): 5 (12) n (%) | Fatigue, grade 3–4 (Total (N=42)): 3 (7) n (%) | Fatigue, grade Any (Total (N=42)): 17 (40) n (%) | Headache, grade 3–4 (Total (N=42)): 1 (2) n (%) | Headache, grade Any (Total (N=42)): 1 (2) n (%) | Nausea, grade 3–4 (Total (N=42)): 0 (0) n (%) | Nausea, grade Any (Total (N=42)): 22 (52) n (%) | Paronychia, grade 3–4 (Total (N=42)): 1 (2) n (%) | Paronychia, grade Any (Total (N=42)): 5 (12) n (%) | Skin fissures, grade 3–4 (Total (N=42)): 1 (2) n (%) | Skin fissures, grade Any (Total (N=42)): 5 (12) n (%) | Stomatitis, grade 3–4 (Total (N=42)): 0 (0) n (%) | Stomatitis, grade Any (Total (N=42)): 14 (33) n (%) | Vomiting, grade 3–4 (Total (N=42)): 0 (0) n (%) | Vomiting, grade Any (Total (N=42)): 15 (36) n (%) | Diarrhea, frequency (all 42 patients): 79% | Fatigue, frequency (all 42 patients): 40% | Nausea, frequency (all 42 patients): 52 % of patients | Stomatitis, frequency (all 42 patients): 33% | Vomiting, frequency (all 42 patients): 36% | Alopecia, grade 3–4 (erlotinib 100–150 mg (N=4)): 0 (0) n (%) | Alopecia, grade Any (erlotinib 100–150 mg (N=4)): 0 (0) n (%) | Anorexia, grade 3–4 (erlotinib 100–150 mg (N=4)): 0 (0) n (%) | Anorexia, grade Any (erlotinib 100–150 mg (N=4)): 2 (50) n (%) | Creatinine, grade 3–4 (erlotinib 100–150 mg (N=4)): 0 (0) n (%) | Creatinine, grade Any (erlotinib 100–150 mg (N=4)): 0 (0) n (%) | Diarrhea, grade 3–4 (erlotinib 100–150 mg (N=4)): 0 (0) n (%) | Diarrhea, grade Any (erlotinib 100–150 mg (N=4)): 4 (100) n (%) | Epistaxis, grade 3–4 (erlotinib 100–150 mg (N=4)): 0 (0) n (%) | Epistaxis, grade Any (erlotinib 100–150 mg (N=4)): 0 (0) n (%) | Fatigue, grade 3–4 (erlotinib 100–150 mg (N=4)): 0 (0) n (%) | Fatigue, grade Any (erlotinib 100–150 mg (N=4)): 3 (75) n (%) | Headache, grade 3–4 (erlotinib 100–150 mg (N=4)): 0 (0) n (%) | Headache, grade Any (erlotinib 100–150 mg (N=4)): 0 (0) n (%) | Nausea, grade 3–4 (erlotinib 100–150 mg (N=4)): 0 (0) n (%) | Nausea, grade Any (erlotinib 100–150 mg (N=4)): 3 (75) n (%) | Paronychia, grade 3–4 (erlotinib 100–150 mg (N=4)): 0 (0) n (%) | Paronychia, grade Any (erlotinib 100–150 mg (N=4)): 0 (0) n (%) | Skin fissures, grade 3–4 (erlotinib 100–150 mg (N=4)): 0 (0) n (%) | Skin fissures, grade Any (erlotinib 100–150 mg (N=4)): 1 (25) n (%) | Stomatitis, grade 3–4 (erlotinib 100–150 mg (N=4)): 0 (0) n (%) | Stomatitis, grade Any (erlotinib 100–150 mg (N=4)): 2 (50) n (%) | Vomiting, grade 3–4 (erlotinib 100–150 mg (N=4)): 0 (0) n (%) | Vomiting, grade Any (erlotinib 100–150 mg (N=4)): 2 (50) n (%) | Alopecia, grade 3–4 (erlotinib 175–200 mg (N=13)): 0 (0) n (%) | Alopecia, grade Any (erlotinib 175–200 mg (N=13)): 0 (0) n (%) | Anorexia, grade 3–4 (erlotinib 175–200 mg (N=13)): 0 (0) n (%) | Anorexia, grade Any (erlotinib 175–200 mg (N=13)): 0 (0) n (%) | Creatinine, grade Any (erlotinib 175–200 mg (N=13)): 1 (8) n (%) | Diarrhea, grade 3–4 (erlotinib 175–200 mg (N=13)): 0 (0) n (%) | Diarrhea, grade Any (erlotinib 175–200 mg (N=13)): 9 (69) n (%) | Epistaxis, grade 3–4 (erlotinib 175–200 mg (N=13)): 0 (0) n (%) | Epistaxis, grade Any (erlotinib 175–200 mg (N=13)): 0 (0) n (%) | Fatigue, grade Any (erlotinib 175–200 mg (N=13)): 4 (31) n (%) | Headache, grade 3–4 (erlotinib 175–200 mg (N=13)): 0 (0) n (%) | Headache, grade Any (erlotinib 175–200 mg (N=13)): 0 (0) n (%) | Nausea, grade 3–4 (erlotinib 175–200 mg (N=13)): 0 (0) n (%) | Nausea, grade Any (erlotinib 175–200 mg (N=13)): 5 (38) n (%) | Paronychia, grade 3–4 (erlotinib 175–200 mg (N=13)): 0 (0) n (%) | Paronychia, grade Any (erlotinib 175–200 mg (N=13)): 0 (0) n (%) | Skin fissures, grade 3–4 (erlotinib 175–200 mg (N=13)): 0 (0) n (%) | Skin fissures, grade Any (erlotinib 175–200 mg (N=13)): 0 (0) n (%) | Stomatitis, grade 3–4 (erlotinib 175–200 mg (N=13)): 0 (0) n (%) | Stomatitis, grade Any (erlotinib 175–200 mg (N=13)): 5 (38) n (%) | Vomiting, grade 3–4 (erlotinib 175–200 mg (N=13)): 0 (0) n (%) | Vomiting, grade Any (erlotinib 175–200 mg (N=13)): 5 (38) n (%) | Creatinine, grade 3–4 [1]: 1 (8) ^a n (%) | Fatigue, grade 3–4 [1]: 1 (8) ^a n (%) | Alopecia, grade 3–4 (erlotinib 225–275 mg (N=18)): 0 (0) n (%) | Alopecia, grade Any (erlotinib 225–275 mg (N=18)): 4 (22) n (%) | Anorexia, grade Any (erlotinib 225–275 mg (N=18)): 6 (33) n (%) | Creatinine, grade 3–4 (erlotinib 225–275 mg (N=18)): 0 (0) n (%) | Creatinine, grade Any (erlotinib 225–275 mg (N=18)): 0 (0) n (%) | Diarrhea, grade 3–4 (erlotinib 225–275 mg (N=18)): 1 (6) n (%) | Diarrhea, grade Any (erlotinib 225–275 mg (N=18)): 13 (72) n (%) | Epistaxis, grade 3–4 (erlotinib 225–275 mg (N=18)): 0 (0) n (%) | Epistaxis, grade Any (erlotinib 225–275 mg (N=18)): 3 (17) n (%) | Fatigue, grade Any (erlotinib 225–275 mg (N=18)): 6 (33) n (%) | Headache, grade Any (erlotinib 225–275 mg (N=18)): 1 (6) n (%) | Nausea, grade 3–4 (erlotinib 225–275 mg (N=18)): 0 (0) n (%) | Nausea, grade Any (erlotinib 225–275 mg (N=18)): 9 (50) n (%) | Paronychia, grade 3–4 (erlotinib 225–275 mg (N=18)): 0 (0) n (%) | Paronychia, grade Any (erlotinib 225–275 mg (N=18)): 3 (17) n (%) | Skin fissures, grade 3–4 (erlotinib 225–275 mg (N=18)): 1 (6) n (%) | Skin fissures, grade Any (erlotinib 225–275 mg (N=18)): 2 (11) n (%) | Stomatitis, grade 3–4 (erlotinib 225–275 mg (N=18)): 0 (0) n (%) | Stomatitis, grade Any (erlotinib 225–275 mg (N=18)): 6 (33) n (%) | Vomiting, grade 3–4 (erlotinib 225–275 mg (N=18)): 0 (0) n (%) | Vomiting, grade Any (erlotinib 225–275 mg (N=18)): 5 (28) n (%) | Anorexia, grade 3–4 [2]: 1 (6) ^a n (%) | Fatigue, grade 3–4 [2]: 2 (11) ^a n (%) | Headache, grade 3–4 [2]: 1 (6) ^a n (%) | Alopecia, grade 3–4 (erlotinib ⩾300 mg (N=7)): 0 (0) n (%) | Alopecia, grade Any (erlotinib ⩾300 mg (N=7)): 2 (29) n (%) | Anorexia, grade 3–4 (erlotinib ⩾300 mg (N=7)): 0 (0) n (%) | Anorexia, grade Any (erlotinib ⩾300 mg (N=7)): 3 (43) n (%) | Creatinine, grade 3–4 (erlotinib ⩾300 mg (N=7)): 0 (0) n (%) | Creatinine, grade Any (erlotinib ⩾300 mg (N=7)): 0 (0) n (%) | Diarrhea, grade 3–4 (erlotinib ⩾300 mg (N=7)): 0 (0) n (%) | Diarrhea, grade Any (erlotinib ⩾300 mg (N=7)): 7 (100) n (%) | Epistaxis, grade 3–4 (erlotinib ⩾300 mg (N=7)): 0 (0) n (%) | Epistaxis, grade Any (erlotinib ⩾300 mg (N=7)): 2 (29) n (%) | Fatigue, grade 3–4 (erlotinib ⩾300 mg (N=7)): 0 (0) n (%) | Fatigue, grade Any (erlotinib ⩾300 mg (N=7)): 4 (57) n (%) | Headache, grade 3–4 (erlotinib ⩾300 mg (N=7)): 0 (0) n (%) | Headache, grade Any (erlotinib ⩾300 mg (N=7)): 0 (0) n (%) | Nausea, grade 3–4 (erlotinib ⩾300 mg (N=7)): 0 (0) n (%) | Nausea, grade Any (erlotinib ⩾300 mg (N=7)): 5 (71) n (%) | Paronychia, grade Any (erlotinib ⩾300 mg (N=7)): 2 (29) n (%) | Skin fissures, grade 3–4 (erlotinib ⩾300 mg (N=7)): 0 (0) n (%) | Skin fissures, grade Any (erlotinib ⩾300 mg (N=7)): 2 (29) n (%) | Stomatitis, grade 3–4 (erlotinib ⩾300 mg (N=7)): 0 (0) n (%) | Stomatitis, grade Any (erlotinib ⩾300 mg (N=7)): 1 (14) n (%) | Vomiting, grade 3–4 (erlotinib ⩾300 mg (N=7)): 0 (0) n (%) | Vomiting, grade Any (erlotinib ⩾300 mg (N=7)): 3 (43) n (%) | Paronychia, grade 3–4 (erlotinib ⩾300 mg (N=7), non-cutaneous dose limiting toxicity reported): 1 (14) ^a n (%) | Non-cutaneous DLT: grade 3 anorexia (human, in vivo): one | Non-cutaneous DLT: grade 3 creatinine elevation (human, in vivo): one | Non-cutaneous DLT: grade 3 fatigue (human, in vivo): three | Non-cutaneous DLT: grade 3 headache (human, in vivo): one | Non-cutaneous DLT: grade 3 paronychia (human, in vivo): one | Patients who discontinued treatment due to protracted grade 3 anorexia and grade 2 nausea (human, in vivo): One | Patients who experienced non-cutaneous DLT (of 42 patients): Seven
